1 molecule from paper PMC7681013, “Structure and kinetics of indole-3-glycerol phosphate synthase from Pseudomonas aeruginosa: Decarboxylation is not essential for indole formation” (The Journal of Biological Chemistry, 2020) can be followed below.

The target in this experiment is T1, PaIGPS (Pseudomonas aeruginosa, UniProt P20577).
T1 construct: gene trpC
T1 sequence (P20577 1-278): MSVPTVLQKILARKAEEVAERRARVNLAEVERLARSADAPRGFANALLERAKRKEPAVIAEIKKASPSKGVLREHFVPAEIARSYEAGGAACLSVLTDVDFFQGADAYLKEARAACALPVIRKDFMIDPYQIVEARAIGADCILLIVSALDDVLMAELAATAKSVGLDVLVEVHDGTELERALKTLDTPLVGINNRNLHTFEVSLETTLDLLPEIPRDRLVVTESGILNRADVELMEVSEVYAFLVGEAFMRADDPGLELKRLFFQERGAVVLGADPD
Briefly: X-ray crystal structure, […] Å. The format is binding. The following applies: active site, nonreactive substrate analog; seven of eight chains; pH 3.4 crystals.

Regarding `O=C(O)c1ccccc1NC[C@@H](O)[C@H](O)[C@H](O)COP(=O)(O)O` [rCdRP], the “X-ray crystal structure, 2.1 Å” value is recorded as “The substrate analog, rCdRP, is bound in the active site of the seven more ordered chains”.
